# Target: T1, Recombinant human mPGES-1 (Homo sapiens, UniProt O14684)
# T1 construct: made in house; host or cells: CHO cells (crude microsomal fractions)
# T1 sequence (O14684 1-152): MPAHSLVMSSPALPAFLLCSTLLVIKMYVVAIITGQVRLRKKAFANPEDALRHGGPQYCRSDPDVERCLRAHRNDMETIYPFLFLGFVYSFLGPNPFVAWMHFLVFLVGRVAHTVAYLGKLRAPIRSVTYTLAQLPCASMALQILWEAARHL
# Assay: In-vitro screening of mPGES-1 inhibitors (inhibition of PGE2 formation from PGH2, HTRF detection)
# Format: biochemical
# Settings: mPGES-1 enzyme; for inhibition at 1 µM: 1 μM test compound, read-out: Percentage inhibition at 1 μM; for inhibition at 1 µM / inhibition at 10 µM: crude microsomal fractions; for inhibition at 10 µM: 10 μM test compound, read-out: Percentage inhibition at 10 μM; for IC50: class symbols
# Excerpt: In-Vitro Protocol for Screening of mPGES-1 Inhibitors: mPGES-1 (Microsomal prostaglandin E synthase-1) is a microsomal enzyme that converts endoperoxide substrate PGH2 (prostaglandin H2) to product PGE2 (prostaglandin E2) by isomerization in the presence of reduced glutathione (GSH). mPGES-1 inhibitors were screened by assessing their ability to inhibit formation of PGE2 from PGH2 in the presence of mPGES-1 using an anti-PGE2 antibody based detection method. Recombinant human mPGES-1 was generated in-house by expression in CHO cells (Ouellet M et al. (2002), Protein Expression and Purification 26: 489-495). The assay was set up using crude microsomal fractions at a protein concentration of 40-60 μg/mL. Test compounds were prepared in 100% dimethyl sulfoxide (DMSO) to obtain 20 mM stock solution and then diluted using assay buffer comprising 0.1 M Potassium phosphate buffer with 2 mM EDTA. The final concentration of DMSO in the reaction was 0.5% (v/v). Negative controls were comprised of all assay reagents except the enzyme. Positive controls were comprised of the enzyme reaction in the absence of any inhibitor. Test compounds were incubated for 10 minutes in assay buffer containing 2.5 mM GSH and mPGES-1 enzyme followed by addition of PGH2 at a concentration of 15 μM for 1 minute. The reaction was stopped by addition of Stannous chloride (11 mg/ml) and PGE2 levels were measured ([…] et al. (2005), Journal of Biomolecular Screening 10(6) 599-605; Goedken R E et al. (2008), Journal of Biomolecular Screening 13 (7): 619-625) by HTRF kit (CisBio)). Inhibition of mPGES-1 enzyme activity was measured using the percent of reaction occurring in the positive control. Concentration response curves were plotted using percent inhibition of maximum enzyme reaction. The IC50 value was calculated from the concentration response curve by nonlinear regression analysis using GraphPad PRISM software.
inhibition at 1 µM,inhibition at 10 µM,IC50,SMILES
100%,98.6%,< 50 nM,"CC(C)(C)C(=O)NCc1ccc(Cl)c(-c2nn(-c3ccc(C(F)(F)F)cc3)c(=O)[nH]2)c1 [Example-100, N-(4-Chloro-3-(5-oxo-1-(4-(trifluoromethyl)phenyl)-4,5-dihydro-1H-1,2,4-triazol-3-yl)benzyl)pivalamide]"
96.4%,98.3%,< 50 nM,"COc1cc(-n2nc(-c3cc(CNC(=O)C4CC4)ccc3Cl)[nH]c2=O)ccc1C(=O)Nc1cccc(C(F)(F)F)c1 [Example-52, 4-(3-(2-Chloro-5-(cyclopropanecarboxamidomethyl)phenyl)-5-oxo-4,5-dihydro-1H-1,2,4-triazol-1-yl)-2-methoxy-N-(3-(trifluoromethyl)phenyl)benzamide]"
92.4%,92.4%,< 50 nM,"COc1cc(-n2nc(-c3c(Cl)cccc3C#N)[nH]c2=O)ccc1C(=O)Nc1ccc(F)c(C(F)(F)F)c1 [Example-73, 4-(3-(2-Chloro-6-cyanophenyl)-5-oxo-4,5-dihydro-1H-1,2,4-triazol-1-yl)-N-(4-fluoro-3-(trifluoromethyl)phenyl)-2-methoxybenzamide]"
98.3%,99%,< 50 nM,"O=C(NCc1ccc(Cl)c(-n2nc(-c3ccc(C#Cc4ccc(C(F)(F)F)cc4Cl)cc3F)[nH]c2=O)c1)C1CC1 [Example-82, N-(4-Chloro-3-(3-(4-((2-chloro-4-(trifluoromethyl)phenyl)ethynyl)-2-fluorophenyl)-5-oxo-4,5-dihydro-1H-1,2,4-triazol-1-yl)benzyl)cyclopropanecarboxamide]"

# Further lines, the compound ahead of its results:
SMILES,inhibition at 1 µM,inhibition at 10 µM,IC50
"COCCCNc1nc(-c2c(F)cccc2Cl)nn1-c1ccc(Br)cc1 [Example-11, 1-(4-Bromophenyl)-3-(2-chloro-6-fluorophenyl)-N-(3-methoxypropyl)-1H-1,2,4-triazol-5-amine]",2.34%,71.7%,–
"O=C(NCc1ccc(Cl)c(-n2nc(-c3ccc(Cl)cc3F)[nH]c2=O)c1)C1CC1 [Example-91, N-(4-Chloro-3-(3-(4-chloro-2-fluorophenyl)-5-oxo-4,5-dihydro-1H-1,2,4-triazol-1-yl)benzyl)cyclopropanecarboxamide]",66.2%,94.3%,–
"O=c1[nH]c(-c2c(F)cccc2Cl)nn1-c1ccc(C#Cc2ccncc2Cl)cc1 [Example-14, 5-(2-Chloro-6-fluorophenyl)-2-{4-[(3-chloropyridin-4-yl)ethynyl]phenyl}-2,4-dihydro-3H-1,2,4-triazol-3-one]",96%,95.8%,50 to 100 nM
"O=c1[nH]c(-c2c(F)cccc2Cl)nn1-c1ccc(C#Cc2cnc(N3CCOCC3)nc2)cc1 [Example-15, 3-(2-Chloro-6-fluorophenyl)-1-(4-((2-morpholinopyrimidin-5-yl)ethynyl)phenyl)-1H-1,2,4-triazol-5(4H)-one]",64.2%,83.8%,–
"COCC(C)(C)C(=O)NCc1ccc(Cl)c(-c2nn(-c3ccc(C(F)(F)F)cc3)c(=O)[nH]2)c1 [Example-122, N-(4-Chloro-3-(1-(4-(trifluoromethyl)phenyl)-4,5-dihydro-5-oxo-1H-1,2,4-triazol-3-yl)benzyl)-3-methoxy-2,2-dimethylpropanamide]",92.2%,93.5%,< 50 nM
CCn1c(-c2c(F)cccc2Cl)nn(-c2ccc(C#Cc3cccc(Cl)c3F)cc2)c1=O [Example-71],12.9%,17.9%,–
"CC(C)(C)C(=O)NCc1ccc(Cl)c(-n2nc(-c3ccc(COCC(F)(F)F)cc3)[nH]c2=O)c1 [Example-152, N-(3-(3-(4-((2,2,2-Trifluoroethoxy)methyl)phenyl)-4,5-dihydro-5-oxo-1,2,4-triazol-1-yl)-4-chlorobenzyl)pivalamide]",96%,100%,< 50 nM

# Source: patent publication US10821100B2, “Triazolone compounds as mPGES-1 inhibitors” (Glenmark Pharmaceuticals S.A., priority 2012, dated 2020)
